The values that follow come from patent US10975101B2, “Ultra-potent vinca alkaloids: added molecular complexity further disrupts the tublin dimer-dimer interface” (priority 2016, dated 2021).

The pIC50 is the IC50 on a negative log10 scale, so that one unit is a factor of ten.

Test [1] concerns HCT116/VM46 (a vinblastine-resistant strain of HCT116) cells. The settings on record: previously reported (footnote a, Barker et al. 2013) or background art table; cited from earlier work.
The subject of test [2] is HCT116 (human colorectal carcinoma) cells. The settings on record: cited from earlier work; for pIC50: previously reported (footnote a, Barker et al. 2013) or background art table; for less potent than vinblastine: cell growth inhibition, background art (Leggans 2012; Barker 2012).
Test [3] has as its system L1210 (mouse lymphocytic leukemia) cells. Nature of the test: Cell growth inhibition assay, L1210. The settings on record: 72 hours incubation, phosphatase assay. The format is cell-based. As for the experimental part: (§1) Compounds were tested for their cell growth inhibition of L1210 (ATCC no. CCL-219, mouse lymphocytic leukemia) cells, HCT116 (ATCC no. CCL-247, human colorectal carcinoma) cells, and HCT116/VM46 (a vinblastine-resistant strain of HCT116) cells in culture. A population of cells (>1×10^6 cells/mL as determined with a hemocytometer) was diluted with an appropriate amount of Dulbecco's Modified Eagle Medium (DMEM, Gibco) containing 10% fetal bovine serum (FBS, Gibco) to a final concentration of 30000 cells/mL.
(§2) To each well of a 96-well plate (Corning Costar), 100 μL of the cell media solution was added with a multichannel pipet. The cultures were incubated at 37° C. in an atmosphere of 5% CO2 and 95% humidified air for 24 hours. The test compounds were added to the plate as follows: test substances were diluted in DMSO to a concentration of 1 mM and 10-fold serial dilutions were performed on a separate 96-well plate. Fresh culture medium (100 μL) was added to each well of cells to constitute 200 μL of medium per well followed by 2 μL of each test agent. Compounds were tested in duplicate (n=2-18 times) at six concentrations between 0-1000 nM or 0-10000 nM. Following addition, cultures were incubated for an additional 72 hours.
(§3) A phosphatase assay was used to establish the IC50 values as follows: the media in each cell was removed and 100 μL of phosphatase solution (100 mg phosphatase substrate in 30 mL of 0.1 M NaOAc, pH 5.5, 0.1% Triton X-100 buffer) was added to each well. The plates were incubated at 37° C. for either 5 minutes (L1210) or 15 minutes (HCT116 and HCT116/VM46). After the given incubation time, 50 μL of 0.1 N NaOH was added to each well and the absorption at 405 nm was determined using a 96 well plate reader. As the absorption is directly proportional to the number of living cells, the IC50 values were calculated and the reported values represent of the average of 4-36 determinations (SD±10%).

Test [4] relates to HCT116 (human colorectal carcinoma) cells. Put plainly: cells. The test is classed as cell-based. The settings on record: 72 hours incubation, phosphatase assay; read-out: IC50, HCT116. As for the experimental part: as §1, §2, §3
Test [5] relates to HCT116/VM46 (a vinblastine-resistant strain of HCT116) cells. Nature of the test: Cell growth inhibition assay, HCT116/VM46. The test is classed as cell-based, human. The settings on record: 72 hours incubation, phosphatase assay; Pgp-overexpressing resistant line. As for the experimental part: as §1, §2, §3

pIC50: −log10 of the molar value. Read-outs that look alike come from different tables or passages of the source. Where only a bound is given, the exact number is not on record here.

For `CC[C@@H]1C[C@H]2CN(CCc3c([nH]c4ccccc34)[C@@](C(=O)OC)(c3cc4c(cc3OC)N(C)[C@H]3[C@@](O)(C(=O)OC)[C@H](OC(C)=O)[C@]5(CC)C=CCN6CC[C@]43[C@@H]65)C2)C1` [Compound 4, reference compound], the results for the pIC50 in test [1] and in test [2] were 6.22 and 7.22, respectively.

In the case of `CC[C@]1(N=[N+]=[N-])C[C@H]2CN(CCc3c([nH]c4ccccc34)[C@@](C(=O)OC)(c3cc4c(cc3OC)N(C)[C@H]3[C@@](O)(C(=O)OC)[C@H](OC(C)=O)[C@]5(CC)C=CCN6CC[C@]43[C@@H]65)C2)C1` [Compound 5], the negative-log IC50 (pIC50) in test [1] was 5.26. For the same compound, in test [2], the “less potent than vinblastine” value is reported as 100 fold and the negative-log IC50 (pIC50) is 6.16.

As for `CC[C@]1(NC(N)=O)C[C@H]2CN(CCc3c([nH]c4ccccc34)[C@@](C(=O)OC)(c3cc4c(cc3OC)N(C)[C@H]3[C@@](O)(C(=O)OC)[C@H](OC(C)=O)[C@]5(CC)C=CCN6CC[C@]43[C@@H]65)C2)C1` [Compound 7, reference compound], the figures for the pIC50 in test [1] and in test [2] were 5.36 and 8.12, respectively.

Consider `CC[C@]1(NC(=O)N2CC=CC2)C[C@H]2CN(CCc3c([nH]c4ccccc34)[C@@](C(=O)OC)(c3cc4c(cc3OC)N(C)[C@H]3[C@@](O)(C(=O)OC)[C@H](OC(C)=O)[C@]5(CC)C=CCN6CC[C@]43[C@@H]65)C2)C1` [Compound 22], for which the figures for the pIC50 in test [3], in test [4] and in test [5] were 9.28, 9.30 and 8.24, respectively.

As for `CC[C@]1(NC(=O)N2CCCCCC2)C[C@H]2CN(CCc3c([nH]c4ccccc34)[C@@](C(=O)OC)(c3cc4c(cc3OC)N(C)[C@H]3[C@@](O)(C(=O)OC)[C@H](OC(C)=O)[C@]5(CC)C=CCN6CC[C@]43[C@@H]65)C2)C1` [Compound 24], the values for the pIC50 in test [3], in test [4] and in test [5] were 8.37, 8.51 and 7.46, respectively.

Regarding `CC[C@]1(NC(=O)N2Cc3ccc(NC(=O)c4ccc(C(C)C)cc4)cc3C2)C[C@H]2CN(CCc3c([nH]c4ccccc34)[C@@](C(=O)OC)(c3cc4c(cc3OC)N(C)[C@H]3[C@@](O)(C(=O)OC)[C@H](OC(C)=O)[C@]5(CC)C=CCN6CC[C@]43[C@@H]65)C2)C1` [Compound 53], the pIC50 in test [3] was 8.54; in test [4], 8.38; in test [5], 7.22.

For `CC[C@]1(NC(=O)N2Cc3ccc(N)cc3C2)C[C@H]2CN(CCc3c([nH]c4ccccc34)[C@@](C(=O)OC)(c3cc4c(cc3OC)N(C)[C@H]3[C@@](O)(C(=O)OC)[C@H](OC(C)=O)[C@]5(CC)C=CCN6CC[C@]43[C@@H]65)C2)C1` [Compound 36], the pIC50 in test [3] was 9.33; in test [4], 9.38; in test [5], 8.17.

Regarding `CC[C@]1(NC(=O)N2Cc3ccc(N(C)C)cc3C2)C[C@H]2CN(CCc3c([nH]c4ccccc34)[C@@](C(=O)OC)(c3cc4c(cc3OC)N(C)[C@H]3[C@@](O)(C(=O)OC)[C@H](OC(C)=O)[C@]5(CC)C=CCN6CC[C@]43[C@@H]65)C2)C1` [Compound 38], the pIC50 in test [3] was 9.30; in test [4] it was 9.21; in test [5], 8.41.

On to `CC[C@]1(N)C[C@H]2CN(CCc3c([nH]c4ccccc34)[C@@](C(=O)OC)(c3cc4c(cc3OC)N(C)[C@H]3[C@@](O)(C(=O)OC)[C@H](OC(C)=O)[C@]5(CC)C=CCN6CC[C@]43[C@@H]65)C2)C1` [Compound 6, 20′-aminovinblastine], for which the pIC50 in test [1] is below 5.00; in test [2], 6.22. Further, in test [2], the “less potent than vinblastine” value is 100 fold.

Consider `CC[C@]1(NC(=O)N2Cc3ccc(NC(=O)c4ccccn4)cc3C2)C[C@H]2CN(CCc3c([nH]c4ccccc34)[C@@](C(=O)OC)(c3cc4c(cc3OC)N(C)[C@H]3[C@@](O)(C(=O)OC)[C@H](OC(C)=O)[C@]5(CC)C=CCN6CC[C@]43[C@@H]65)C2)C1` [Compound 55], for which the pIC50 was 9.43 in test [3], 9.31 in test [4] and 8.44 in test [5].

With `CC[C@]1(NC(=O)N2Cc3ccc(NC(=O)c4cccnc4)cc3C2)C[C@H]2CN(CCc3c([nH]c4ccccc34)[C@@](C(=O)OC)(c3cc4c(cc3OC)N(C)[C@H]3[C@@](O)(C(=O)OC)[C@H](OC(C)=O)[C@]5(CC)C=CCN6CC[C@]43[C@@H]65)C2)C1` [Compound 56], the values for the negative-log IC50 (pIC50) in test [3], in test [4] and in test [5] were 9.32, 9.48 and 8.18, respectively.

Turning to `CC[C@]1(NC(=O)N2Cc3ccc(NC(=O)C(C)C)cc3C2)C[C@H]2CN(CCc3c([nH]c4ccccc34)[C@@](C(=O)OC)(c3cc4c(cc3OC)N(C)[C@H]3[C@@](O)(C(=O)OC)[C@H](OC(C)=O)[C@]5(CC)C=CCN6CC[C@]43[C@@H]65)C2)C1` [Compound 43], the pIC50 was 9.41 in test [3], 9.31 in test [4] and 8.19 in test [5].

Consider `CC[C@]1(NC(=O)N2CCC(C#N)C2)C[C@H]2CN(CCc3c([nH]c4ccccc34)[C@@](C(=O)OC)(c3cc4c(cc3OC)N(C)[C@H]3[C@@](O)(C(=O)OC)[C@H](OC(C)=O)[C@]5(CC)C=CCN6CC[C@]43[C@@H]65)C2)C1` (single isomer, unassigned) [Compound 20], for which the negative logarithm of the IC50 (pIC50) in test [3] was 8.43; in test [4], 8.82; in test [5] it was 7.22.

As to `CC[C@]1(NC(=O)N2Cc3ccc(Cl)cc3C2)C[C@H]2CN(CCc3c([nH]c4ccccc34)[C@@](C(=O)OC)(c3cc4c(cc3OC)N(C)[C@H]3[C@@](O)(C(=O)OC)[C@H](OC(C)=O)[C@]5(CC)C=CCN6CC[C@]43[C@@H]65)C2)C1` [Compound 32], the negative-log IC50 (pIC50) is 9.30 in test [3], 9.26 in test [4] and 8.24 in test [5].

For `CC[C@]1(NC(=O)N2Cc3ccc(C)cc3C2)C[C@H]2CN(CCc3c([nH]c4ccccc34)[C@@](C(=O)OC)(c3cc4c(cc3OC)N(C)[C@H]3[C@@](O)(C(=O)OC)[C@H](OC(C)=O)[C@]5(CC)C=CCN6CC[C@]43[C@@H]65)C2)C1` [Compound 30], the values for the negative-log IC50 (pIC50) in test [3], in test [4] and in test [5] were 9.39, 9.36 and 8.23, respectively.

`CC[C@]1(NC(=O)N2Cc3ccc(C(F)(F)F)cc3C2)C[C@H]2CN(CCc3c([nH]c4ccccc34)[C@@](C(=O)OC)(c3cc4c(cc3OC)N(C)[C@H]3[C@@](O)(C(=O)OC)[C@H](OC(C)=O)[C@]5(CC)C=CCN6CC[C@]43[C@@H]65)C2)C1` [Compound 34]: the pIC50 in test [3] was 9.23; in test [4] it was 9.17; in test [5], 8.21.

With `CC[C@]1(NC(=O)N2CCC(F)C2)C[C@H]2CN(CCc3c([nH]c4ccccc34)[C@@](C(=O)OC)(c3cc4c(cc3OC)N(C)[C@H]3[C@@](O)(C(=O)OC)[C@H](OC(C)=O)[C@]5(CC)C=CCN6CC[C@]43[C@@H]65)C2)C1` (single isomer, unassigned) [Compound 17], the pIC50 is 9.21 in test [3], 9.19 in test [4] and 8.14 in test [5].

For the compound `CC[C@]1(NC(=O)N2Cc3ccc(Br)cc3C2)C[C@H]2CN(CCc3c([nH]c4ccccc34)[C@@](C(=O)OC)(c3cc4c(cc3OC)N(C)[C@H]3[C@@](O)(C(=O)OC)[C@H](OC(C)=O)[C@]5(CC)C=CCN6CC[C@]43[C@@H]65)C2)C1` [Compound 33], the figures for the pIC50 in test [3], in test [4] and in test [5] were 9.21, 9.25 and 8.19, respectively.

For the compound `CCCCCC(=O)Nc1ccc2c(c1)CN(C(=O)N[C@@]1(CC)C[C@H]3CN(CCc4c([nH]c5ccccc45)[C@@](C(=O)OC)(c4cc5c(cc4OC)N(C)[C@H]4[C@@](O)(C(=O)OC)[C@H](OC(C)=O)[C@]6(CC)C=CCN7CC[C@]54[C@@H]76)C3)C1)C2` [Compound 45], the pIC50 was 9.36 in test [3], 9.21 in test [4] and 7.89 in test [5].

On to `CC[C@]1(NC(=O)N2Cc3ccc(NC)cc3C2)C[C@H]2CN(CCc3c([nH]c4ccccc34)[C@@](C(=O)OC)(c3cc4c(cc3OC)N(C)[C@H]3[C@@](O)(C(=O)OC)[C@H](OC(C)=O)[C@]5(CC)C=CCN6CC[C@]43[C@@H]65)C2)C1` [Compound 37], for which the pIC50 in test [3] was 9.35; in test [4], 9.37; in test [5], 8.34.
